Entries after “also recorded” stand apart in the source; their conditions may differ.
Tests used:
[1] = test system: CALR promoter; experiment: CALR luciferase promoter reporter assay with TGF-β; assay type: cell-based, human; conditions: control-transfected HEK cells, TGFβ-1 0.5-10 ng/mL, 16 hours
Procedure: Calreticulin LightSwitch Promoter Reporter GoClones (RenSP, S721464), Empty vectors (S790005) and Cypridina TK Control constructs (pTK-Cluc, SN0322S) were obtained from SwitchGear Genomics (Menlo Park, Calif.) and transfected into HEK cells using Lipofectamine 2000 (Invitrogen). For knockdown assays, 5 pmol of anti-CDKN2B or control siRNA were co-transfected. For overexpression, CDKN2B (sc319536) and Rb expression plasmid (sc119971) and empty vector (pCMV6) were obtained from Origene and 100 ng of plasmid were co-transfected. Dual luciferase activity was measured with the LightSwitch Dual Assay System after 48 hours using a SpectraMax L luminometer (Molecular Devices), according to the manufacturer's instructions. In some experiments, media was changed to serum-free media after 24 hours of transfection. Studies were performed at baseline, and after the cells had been exposed to escalating doses of recombinant human TGFβ-1 (from Sigma, 0.5-10 ng/mL) for the final 16 hours prior to analysis. Relative luciferase activity (Renilla/Cypridina luciferase ratio) is expressed as the percentage change relative to the basal values obtained from control-transfected cells not exposed to TGF-β treatment.

[2] = test system: CDKN2B; experiment: CDKN2B expression in untransfected HCASMC after exogenous TGF-β; assay type: cell-based, human; conditions: FIG. 9B
Procedure: Human coronary artery SMC (HCASMC, Lonza, Walkersville, Md., passage #3-6) were propagated in SmGM-2 growth media (Lonza) containing 5% FBS. Human THP-1 monocytic cells, human embryonic kidney (HEK-293) and RAW 264.7 macrophages (ATCC) were grown in DMEM-growth media containing 10% FBS. Primary vascular smooth muscle cells were harvested from the aortas of Cdkn2b^+/+ and Cdkn2b^−/− mice, as previously described. Primary activated macrophages were harvested from mice 72 hrs after intraperitoneal injection of 2 ml of 4% thioglycollate, as previously described. To induce growth arrest and the expression of differentiation genes, SMC were serum starved in basal media (SmBM) for 72 hours, according to conventional protocols.
PCR RNA was isolated from cell lysates using the miRNeasy Mini Kit (Qiagen, Valencia, Calif.) according to the manufacturer's protocol. RNA was isolated from the murine organ samples using the Trizol method (Invitrogen). RNA was quantified with the Nanodrop machine ([…], Santa Clara, Calif.) For quantitation of gene transcription, cDNA was generated with M-MuLV reverse transcriptase, and then amplified on the ABI PRISM 7900HT with commercially available TaqMan primers (Applied Biosystems, Foster City, Calif.) and normalized to 18S internal controls, as previously described. A list of the primers and probes used in these studies is provided in below.

[3] = test system: CDKN2B-deficient SMCs; experiment: Phagocytosis of CDKN2B-deficient SMCs by macrophages with anti-CD47 Ab; assay type: cell-based; conditions: FIG. 12
Text: Implicating Cdkn2b in “efferocytosis”— the phagocytic clearance of apoptotic debris: an increase in the rate at which apoptotic debris was produced in this chronic disease model could not be observed (P=NS for TUNEL and Caspase assays at both Week 4 and Week 12). It was reasoned that loss of Cdkn2b might regulate the rate at which apoptotic debris is cleared in the developing atherosclerotic plaque. This process, known as “efferocytosis” (from the Greek meaning to carry the dead to the grave), was assessed with established in vitro flow cytometry-based co-culture phagocytosis assays.

Substance | CALR expression (promoter reporter activity) [1] | CDKN2B expression [2] | increase in phagocytosis of SMCs by Mϕ's ([3]; CDKN2B-deficient SMCs) | phagocytosis of CDKN2B-deficient SMCs by macrophages [3]
TGF-β: recombinant human TGFβ-1 (from Sigma) | increased in response to TGF-β treatment in a dose-dependent manner; also recorded: increased by TGF-β in a dose-dependent manner | increased their expression of CDKN2B | – | –
Hu5F9-G4: humanized anti-CD47 mAb engineered by CDR grafting of mouse sequences into a human IgG4 framework | – | – | ~72% | enables macrophages to phagocytose

— patent US10329354B2, “Modulation of efferocytosis pathways for treatment of atherosclerotic disease” (The Board of Trustees of the Leland Stanford Junior …, priority 2013, dated 2019)
